Source: US7208167B2, “Treatment of hepatitis C with thymosin and peptide combination therapy” (SciClone Pharmaceuticals, Inc., priority 2000, dated 2007)
Marks after values point to notes of the source that are not given here. Ends that are not written are not given here.

Experiments:
[1] = tested on: HCV genotype 1; assay: 12-week dose ranging study of thymalfasin plus PEG-IFN2a in chronic hepatitis C non-responders: serum HCV RNA, EVR; assay type: in vivo, patients; settings: for Median Reduction HCV RNA (log): week 12
Protocol: The effects of 3 different doses of thymalfasin (TA1) in combination with PEG-IFN2a on week 12 HCV RNA levels and T cell counts was investigated.
(§1) Patients with chronic hepatitis C who were non-responders to previous antiviral therapy were randomized to receive PEG-IFN2a 180 μg/week plus thymalfasin given twice a week by subcutaneous injection (Group 1, 0.8 mg; Group 2, 1.6 mg; Group 3, 3.2 mg). In order to assess effect of thymalfasin on PEG-IFN2a, patients were included only if they were infected with HCV genotype 1 and had serum HCV RNA levels greater than 2 million copies per ml. The effect of therapy was assessed on the reduction in serum HCV RNA after 12 weeks, early virologic response (EVR, proportion which greater than 2 log reduction or negative HCV RNA by the Roche Amplicor assay) and on changes in peripheral CD3 and CD4 lymphocyte counts from baseline (assessed by flow cytometry).
31 patients (26 male) with median age 47 yrs (range 39–58) were enrolled. Four were non-responders to a previous course of standard IFN alone while 27 had previously non responded to standard IFN with ribavirin. All subjects completed 12 weeks of therapy. Six (19%) became negative for HCV RNA on therapy. […] The median reduction in HCV RNA increased with dose with thymosin (Table B).
Patients were randomized into three groups to receive 180 mcg/week of pegylated interferon alpha-2a plus one of three different bi-weekly doses of TA1.

[2] = tested on: peripheral CD4 lymphocyte counts; assay: Same study: change in peripheral CD4 lymphocyte counts from baseline (flow cytometry); assay type: in vivo, patients
Protocol: as §1

[3] = tested on: peripheral CD3 lymphocyte counts; assay: Same study: change in peripheral CD3 lymphocyte counts from baseline (flow cytometry); assay type: in vivo, patients
Protocol: as §1

[4] = tested on: HCV genotype-1a; assay: Case report, person with hepatitis C: HCV RNA levels; assay type: in vivo, patient
Protocol: Then it was decided to start PEG Intron at ⅕ mc/kg/w, ribavirin at 12 mg/kg/day and thymosin-alpha-1 at 3.2 mcg BIW SQ, as a second course of treatment.

[5] = in vivo
Excerpt: Patients will be monitored for significant side-effects or allergic manifestations possibly resulting from treatment. […] Patients will be educated on the symptoms of severe anaphylactic reactions and informed of appropriate countermeasures.

[6] = Group 1: 0.8 mg biw + PEG-IFN2a 180 μg/week
[7] = Group 2: 1.6 mg biw + PEG-IFN2a 180 μg/week
[8] = Group 3: 3.2 mg biw + PEG-IFN2a 180 μg/week

**Q.** Which results are given for “thymalfasin: 28 amino acidic polypeptide with a molecular weight of 3100 that has potent immunologic activity; synthetic Tα1 by SciClone (Ac-SDAAVDTSSEITTKDLKEKKEVVEEAEN; UniProt P06454 2-29, looked up)”?
**A.** EVR, early virologic response (greater than 2 log reduction or negative HCV RNA) ([1]; Group 1: 0.8 mg biw + PEG-IFN2a 180 μg/week, 12 weeks, listed as T1): 20%; EVR, early virologic response (greater than 2 log reduction or negative HCV RNA) ([1]; Group 1: 0.8 mg biw + PEG-IFN2a 180 μg/week, 12 weeks, listed as TA1): 20%; Median Reduction HCV RNA (log) ([1]; Group 1: T1 0.8 mg biw sc + PEG-IFN2a 180 μg/week, n=10): 0.57 log; EVR, early virologic response (greater than 2 log reduction or negative HCV RNA) ([1]; Group 2: 1.6 mg biw + PEG-IFN2a 180 μg/week, 12 weeks, listed as T1): 30%; EVR, early virologic response (greater than 2 log reduction or negative HCV RNA) ([1]; Group 2: 1.6 mg biw + PEG-IFN2a 180 μg/week, 12 weeks, listed as TA1): 30%; Median Reduction HCV RNA (log) ([1]; Group 2: T1 1.6 mg biw sc + PEG-IFN2a 180 μg/week, n=10, p < 0.01 vs group 1): 0.97* log; EVR, early virologic response (greater than 2 log reduction or negative HCV RNA) ([1]; Group 3: 3.2 mg biw + PEG-IFN2a 180 μg/week, 12 weeks, listed as T1): 36%; EVR, early virologic response (greater than 2 log reduction or negative HCV RNA) ([1]; Group 3: 3.2 mg biw + PEG-IFN2a 180 μg/week, 12 weeks, listed as TA1): 36%; Median Reduction HCV RNA (log) ([1]; Group 3: T1 3.2 mg biw sc + PEG-IFN2a 180 μg/week, n=11, p < 0.005 vs group 1): 1.09** log; Patients who became negative for HCV RNA on therapy ([1]; all 31 patients, all three dose groups, with PEG-IFN2a, 12 weeks): 19%; CD4+ change from baseline [2, 6]: −0.2%; CD4+ change from baseline [2, 7]: +14.8%; CD4+ change from baseline [2, 8]: +8.8%; CD3+ change from baseline [3, 6]: 0%; CD3+ change from baseline [3, 7]: +8.3%; CD3+ change from baseline [3, 8]: +7.5%; HCV RNA by TMA ([4]; 1 and 3 months after stopping 12 months of PEG Intron + ribavirin + thymosin-alpha-1): negative; HCV RNA blood levels by TMA ([4]; PEG Intron ⅕ mc/kg/w + ribavirin 12 mg/kg/day + thymosin-alpha-1 3.2 mcg BIW SQ, month 1, 3, 6 and 12): less than 5 IU/mL; local or systemic side effects [5]: no local or systemic side effects have been observed
